Data taken from the OPERA property sets (Mansouri et al. 2018).

Conditions: not given

Structure (SMILES) | melting point [°C] | boiling point [°C] | ready biodegradability | log10 vapour pressure (mmHg) | log10 Koc (L/kg) | log10 biodegradation half-life (days) | log10 Henry constant (atm·m³/mol)
CN(C)c1ccc(O)cc1 | 77 |  |  |  |  |  | 
Cc1cccc(CO)c1 |  | 216 |  |  |  |  | 
CNC(=O)Oc1ccc2c(c1)[C@]1(C)CCO[C@@H]1N2C | 124 |  |  |  |  |  | 
COc1ccc(C(=O)O)cc1 | 185 | 276 | readily biodegradable |  |  |  | 
CC(C)COS(=O)OCC(C)C |  | 210 |  |  |  |  | 
COC(=O)C1(O)c2ccccc2-c2ccc(Cl)cc21 (stereo unspecified) | 139 |  |  |  |  |  | 
Cc1c(F)cccc1Cl |  | 154 |  |  |  |  | 
CCCCCCCCCCCCCCCCCl | 17.9 | 322 |  | -4.21 |  |  | 
Oc1c(Cl)cc(Cl)cc1Sc1cc(Cl)cc(Cl)c1O | 188 |  |  |  |  |  | 
CCCCc1ccccc1 | -87.9 | 183 | not readily biodegradable | 0.027 | 3.39 |  | 
CCO[Si](C)(OCC)OCC |  | 142 |  |  |  |  | 
CCCCCCC(C(=O)OCC)C(=O)OCC |  | 269 |  |  |  |  | 
CC#CCCO |  | 154 |  |  |  |  | 
CCC(C)C(C)O (stereo unspecified) |  | 134 |  |  |  |  | 
C=C(C)C(=O)OCC(CC)CCCC (stereo unspecified) |  |  | readily biodegradable |  |  |  | 
COc1ccc(Cc2nccc3cc(OC)c(OC)cc23)cc1OC | 148 |  |  |  |  |  | 
O=Cc1ccc(Br)cc1 | 67 |  |  |  |  |  | 
O=C(O)[C@H]1O[C@@H](OCC(Cl)(Cl)Cl)[C@H](O)[C@@H](O)[C@@H]1O | 142 |  |  |  |  |  | 
CCN(CC)CCOCCO |  | 222 |  |  |  |  | 
O=C1OC(=O)C2=C1CCCC2 | 74 |  |  |  |  |  | 
O=C(O)c1ccc(C(F)(F)F)cc1 | 220 |  |  |  |  |  | 

Structure (SMILES) | melting point [°C] | boiling point [°C] | ready biodegradability | log10 vapour pressure (mmHg) | log10 Koc (L/kg) | log10 biodegradation half-life (days) | log10 Henry constant (atm·m³/mol)
CC1=CC(=O)C(C(C)C)CC1 (stereo unspecified) |  | 233 |  |  |  |  | 
CCOC(=O)CC(C)O (stereo unspecified) |  | 185 |  |  |  |  | 
CCC(CC)C(C)C | -115 | 116 |  | 1.38 |  | 0.778 | 
Nc1ccc(O)c(C(=O)O)c1 | 283 |  |  |  |  |  | 
O=S(=O)(O)c1ccc(O)cc1 |  |  | readily biodegradable |  |  |  | 
CC(=O)Nc1ccccc1Cl | 89 |  |  |  | 1.58 |  | 
O=C1c2ccccc2C(=O)c2c1ccc1ccccc21 | 170 |  | not readily biodegradable |  |  |  | 
CCC(C)(CC)c1cc(NC(=O)c2c(OC)cccc2OC)on1 | 178 |  |  | -8.38 | 2.4 |  | 
ON=Cc1ccccc1O | 57 |  |  |  |  |  | 
Clc1ccccc1-c1ccc(Cl)c(Cl)c1Cl |  |  |  |  |  |  | -3.85
CC1(CCl)CO1 (stereo unspecified) |  | 122 | not readily biodegradable |  |  |  | 
CC(C)(Oc1ccc(Cl)cc1)C(=O)OCCOC(=O)c1cccnc1 | 100 |  |  |  |  |  | 
Cc1ccc(CCc2ccc(C)cc2)cc1 | 85 |  |  |  |  |  | 
CC1=CCCC1C (stereo unspecified) | -118 | 99 |  |  |  |  | 
CC1CC(CC2CCC(N)C(C)C2)CCC1N (stereo unspecified) |  |  | not readily biodegradable |  |  |  | 
CC1(C)C2CCC(C=O)C1C2 (stereo unspecified) |  | 220 |  |  |  |  | 
O=Cc1ccncc1 |  |  |  |  |  |  | -6.75
CC(C)CI | -93 | 121 |  | 1.19 |  |  | 
CCCCCCCCCCCC(=O)OOC(=O)CCCCCCCCCCC | 49 |  | readily biodegradable |  |  |  | 
CC(=O)CCCC(C)C |  | 167 |  |  |  |  | 
CCCCN1CCCC1 |  | 154 | readily biodegradable |  |  |  | 

Structure (SMILES) | melting point [°C] | boiling point [°C] | ready biodegradability | log10 vapour pressure (mmHg) | log10 Koc (L/kg) | log10 biodegradation half-life (days) | log10 Henry constant (atm·m³/mol)
c1ccc2c(c1)-c1cc3ccccc3c3cc4ccccc4c-2c13 | 232 |  |  |  |  |  | 
COc1ccccn1 |  | 142 |  |  |  |  | 
O=C(Nc1ccccc1)Nc1ccccc1 | 239 | 262 |  | -5.12 |  |  | 
c1cc2c(cn1)CCCC2 | 146 | 218 |  |  |  |  | 
CCCCCCCCCCCCCCCCCCCCCCCCCCCC | 64.5 | 432 | readily biodegradable | -8.8 |  | 2.1 | 
ClC1=C(Cl)C(Cl)(Cl)C(Cl)=C1Cl | -9 | 239 | not readily biodegradable | -1.22 |  |  | -1.57
OC1[C@@H](O)[C@H](O)C[C@@H](O)[C@@H]1O (stereo partly specified) | 236 |  |  |  |  |  | 
CC1(C)C2C=C[C@]1(C)CC2 | 113 | 146 |  |  |  |  | 
O=c1cc(O)c2ccccc2o1 | 214 |  |  |  |  |  | 
CCCNC(=O)NCCC | 105 | 255 |  |  |  |  | 
C/C=C(\C)c1ccccc1 | -23.5 |  |  |  |  |  | 
CCOC(=O)NP(=O)(N1CC1)N1CC1 | 89 |  |  |  |  |  | 
CCCCCCNC(=O)COC(=O)c1ccccc1 | 130 |  |  |  |  |  | 
CCCCC(=O)CCCC | -3.8 | 188 |  | -0.258 |  |  | 
CC(C)=C(C)C | -74.6 | 73.3 |  | 2.1 |  |  | 
Nc1ccc(C(F)(F)F)cc1 | 38 |  |  |  |  |  | 
CCC(=O)Nc1ccc(Cl)c(Cl)c1 | 92 | 351 | readily biodegradable | -6.04 | 2.17 |  | 
COc1ccc(CC(=O)O)cc1 | 87 |  |  |  |  |  | 
CCCOC(=O)Nc1ccccc1 |  |  |  |  | 2.06 |  | 
CCON=C(CC)C1=C(O)CC(c2c(C)cc(C)cc2C)CC1=O (stereo unspecified) | 106 |  |  | -8.56 |  |  | 
Nc1cccc2c(O)nnc(O)c12 | 330 |  |  |  |  |  | 

Same assay, conditions: fish

Structure (SMILES) | log10 BCF | log10 biotransformation half-life (days)
Sc1nc2ccccc2[nH]1 | 0.41 | 
Oc1ccc(Cl)c(Cl)c1 | 1.69 | -0.92
CCC(C)c1ccc(O)cc1 (stereo unspecified) | 1.31 | -0.84
CNC(=O)CSP(=S)(OC)OC | 0.2 | -1.01
O=C1c2ccccc2C(=O)c2c1ccc1ccccc21 | 1.69 | -0.84
CCC(=O)Nc1ccc(Cl)c(Cl)c1 | 1.84 | 
